Data as given in PubChem BioAssay AID463204 (Broad Institute, 2010).
Active and inactive are the calls of the source.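 The calls were made as follows: active = AC50 no more than ten times the top concentration tested, that is within one log above it; inconclusive = flat curve fit with activity between 30% and 70%, or invalid poor fit; inactive = AC50 beyond ten times the top tested dose.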

Tested on: S. cerevisiae Mot1-301 ts growth rescue, BacTiter-Glo ATP luminescence
Experiment: growth rescue of Mot1-301 ts yeast, confirmation, SUMOylation pathway inhibitor project, whole organism, S. cerevisiae, Mot1-301 ts mutant, luminescence, dose retest (AID 463204);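 also: growth at restrictive 38.5 degrees C of Mot1-301 OY566 strain; actives raise luminescence by restoring growth of the ts mutant at high temperature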

Compound	AC50
CCOc1c(P(=S)(N(C)C)N(C)C)c(C)nn1-c1ccccc1	> 42 µM (inactive)
CC(=O)c1c(N)[nH]c(-c2ccccc2)nc1=S	> 42 µM (inactive)
COc1ccccc1NC(=O)Nc1ccc(Cl)c(S(=O)(=O)Nc2ccccc2OC)c1	> 42 µM (inactive)
Cc1ccc(CNC(=O)CCNS(=O)(=O)c2cccs2)cc1	> 42 µM (inactive)
O=C(O)COc1ccc(=O)n(-c2ccccc2)n1	> 42 µM (inactive)
CCOC(=O)c1c(C)[nH]c(O)c1C=Nc1ccccc1	> 42 µM (inactive)
O=C(CN1c2ccccc2Sc2ccccc21)N/N=C/c1ccc(Cl)cc1Cl	> 21 µM (inactive)
Cc1ccc(SCCNC(=O)CN2C(=O)c3ccccc3S2(=O)=O)cc1	> 42 µM (inactive)
COc1ccc(S(=O)(=O)NCC(=O)N(CC(=O)NCc2ccco2)Cc2ccccc2)cc1	> 42 µM (inactive)
Cc1ccc(SCCC(=O)Nc2ccc(OCc3ccccc3)cc2)cc1	> 42 µM (inactive)
O=c1c2ccccc2nc(SCc2nnc(-c3ccccc3)o2)n1-c1ccc(F)cc1F	> 42 µM (inactive)
O=c1[nH]c(O)c(N=Nc2cc([N+](=O)[O-])ccc2O)c(=O)[nH]1	> 42 µM (inactive)
Cc1cccc(C)c1NC(=O)C(Cl)C(=O)c1ccccc1 (stereo not given)	0.68 µM
O=C(Nc1ccccn1)c1ccc(CN(c2ccccc2)S(=O)(=O)c2ccccc2)cc1	> 42 µM (inactive)
O=S(=O)(Nn1c(O)c(C=C2N=c3ccccc3=N2)sc1=S)c1ccccc1	> 42 µM (inactive)
CC(=O)c1ccc(Nc2cc(C)nc3ccccc23)cc1	> 42 µM (inactive)
CCOC(=O)c1sc(NC(=O)CSc2n[nH]c(-c3ccc(Cl)cc3Cl)n2)c(C#N)c1C	> 42 µM (inactive)
COc1ccc(CN2CCN(C(=O)c3cc(-c4cccnc4)nc4ccc(Cl)cc34)CC2)c(OC)c1OC	> 42 µM (inactive)
Cc1cc(NC(=O)c2ccc3c(c2)C(=O)N(C(C)(C)C)C3=O)no1	> 42 µM (inactive)
CCCCn1c(/C=N/Nc2nc3ccccc3[nH]2)nc2ccccc21	3.98 µM
COc1cccc(CN2CCN(C(=O)c3cccc4ccccc34)CC2)c1OC	> 42 µM (inactive)
O=C(COc1cnc2ccccc2n1)NCCC1=CCCCC1	> 42 µM (inactive)
Fc1ccc(-c2nnc3ccc(N4CCCC4)nn23)cc1	> 42 µM (inactive)
CCC1CCCCN1C(=O)CSc1nc2c([nH]c3ccccc32)c(=O)n1C (stereo not given)	> 42 µM (inactive)
CCc1ccc(NC(=O)N2CCC(c3ccccc3)C2)cc1 (stereo not given)	> 42 µM (inactive)

Compound	AC50
COc1cc(C(=O)N/N=C/c2ccccn2)cc(OC)c1OC	> 42 µM (inactive)
O=C(CSc1nnc(CNC(=O)c2ccccc2F)o1)NCCc1ccccc1	> 42 µM (inactive)
COc1ccc(NC(=O)COc2cc(C)cc(C)c2)cc1S(=O)(=O)N1CCCCC1	> 42 µM (inactive)
COc1ccccc1NC(NC(=O)c1ccco1)C(=O)c1ccccc1 (stereo not given)	> 42 µM (inactive)
Cc1ccc(NC(=O)NNC(=O)Cn2nc(-c3ccccc3)c(-c3ccccc3)c(C#N)c2=O)cc1	> 42 µM (inactive)
COc1ccc(N2CC(C(=O)N3CCc4ccccc43)CC2=O)cc1 (stereo not given)	> 42 µM (inactive)
Cc1ccc(C)c(N2CCN(C(c3ccncc3)c3nnnn3Cc3ccccc3)CC2)c1 (stereo not given)	> 21 µM (inactive)
CCN(CC(=O)NCc1ccc(Cl)cc1)C(=O)/C=C/c1ccc(C#N)cc1	> 42 µM (inactive)
CCOC(=O)c1cc([N+](=O)[O-])c([N+](=O)[O-])cc1NC(C)=O	8.71 µM
O=C(NCCc1cnccn1)C1CCC(=O)N(Cc2ccc(Cl)cc2)C1 (stereo not given)	> 42 µM (inactive)
CCOC(=O)N1CCN(c2cc3[nH]c(=S)[nH]c3cc2F)CC1	> 42 µM (inactive)
COc1ccccc1NC(=O)c1nn(-c2cccc(C(F)(F)F)c2)ccc1=O	> 42 µM (inactive)
COCCNC(=O)C(=O)NCC1OCCN1C(=O)c1ccc(Cl)cc1 (stereo not given)	> 42 µM (inactive)
COc1ccc(NC(=O)C2CCN(c3cc(C)nc(-c4ccccc4)n3)CC2)cc1	> 42 µM (inactive)
Cc1ccc(S(=O)(=O)Cc2ccc(C(=O)N3CCN(c4ccccn4)CC3)o2)cc1	> 42 µM (inactive)
COc1cc(/C=N/n2cnnc2)ccc1OCc1ccccc1	> 42 µM (inactive)
O=C(CCc1nc2sc3c(c2c(=O)[nH]1)CCCC3)N1CCN(c2ccccc2)CC1	> 42 µM (inactive)
O=C(COc1ccccc1)NCCS(=O)(=O)N1CCN(c2ccccc2)CC1	> 42 µM (inactive)
Cc1cccc(N2CN=c3s/c(=C\c4ccccn4)c(=O)n3C2)c1	> 42 µM (inactive)
CCOC(C(=O)OCCCN(CC)CC)(c1ccccc1)c1ccccc1	> 42 µM (inactive)
Cc1ccccc1-c1nnnn1C1CCS(=O)(=O)C1 (stereo not given)	> 42 µM (inactive)
Cc1ccc(NC(=S)NNC(=O)c2ccc(N3CCOCC3)c([N+](=O)[O-])c2)cc1C	> 42 µM (inactive)
CC(=O)Nc1ccc(S(=O)(=O)Nc2ccc(S(=O)(=O)Nc3ncccn3)cc2)cc1	> 42 µM (inactive)
COc1cccc(C(=O)N2CCN(S(=O)(=O)Cc3ccccc3)CC2)c1OC	> 42 µM (inactive)
O=C(c1ccc([N+](=O)[O-])cc1)N1CCN(c2ncc(Br)cn2)CC1	> 42 µM (inactive)

Compound	AC50
Cc1ccc(-n2c(C)cc(/C=N/NC(=O)c3ccncc3)c2C)cc1C	> 42 µM (inactive)
COC(=O)c1cn(C(=O)c2cccc3ccccc23)c2ccccc12	> 42 µM (inactive)
COc1ccc(NC(=S)NC(=O)C2CCC2)cc1	> 42 µM (inactive)
CN(C)C(=O)CN1C(=O)c2cccc3cccc1c23	> 42 µM (inactive)
COC(=O)c1cccc(NC(=O)CN(c2ccc3c(c2)OCO3)S(C)(=O)=O)c1C	> 42 µM (inactive)
COc1ccc(S(=O)(=O)N2CCc3cc4c(cc3C2C)OCCCO4)cc1 (stereo not given)	> 42 µM (inactive)
Cc1ccc(Oc2ccccc2NC(=O)C2=COCCO2)cc1	> 42 µM (inactive)
CCC(=O)N(Cc1ccc2c(c1)OCO2)Cc1cc2cc(OC)ccc2[nH]c1=O	> 42 µM (inactive)
COCCN1C(=O)/C(=C/c2cc3c(cc2Br)OCO3)NC1=S	> 42 µM (inactive)
COCC(=O)n1nc(NCc2ccc(OC)cc2)nc1NCc1ccc(OC)cc1	> 42 µM (inactive)
Cc1ccn2cc(-c3cnoc3C)nc2c1	> 42 µM (inactive)
CC(C)C(=O)Nc1cccc(-c2nc3ncccc3o2)c1	> 42 µM (inactive)
O=C(O)C1C(C(=O)O)C2(Cl)C(Cl)=C(Cl)C1(Cl)C2(Cl)Cl (stereo not given)	> 42 µM (inactive)
Fc1ccc2nc(C3CCN(Cc4nc(CC5CC5)no4)CC3)[nH]c2c1	> 42 µM (inactive)
CC1CN=C(NCc2ccccc2)S1 (stereo not given)	> 42 µM (inactive)
CCOC(=O)N1CCC(Nc2nc3ccccc3n3nnnc23)CC1	> 42 µM (inactive)
c1ccc(CNc2ncnc3sc4c(c23)CCC4)nc1	> 42 µM (inactive)
CN(CC(=O)Nc1cccc(F)c1)CC(=O)Nc1cccc(S(N)(=O)=O)c1	> 110 µM (inactive)
CN(C)CC/C=C1\c2ccccc2Sc2ccc(Cl)cc21	> 42 µM (inactive)
CCN(CC)c1ccc2c(C)c(CN3CCOCC3)c(=O)oc2c1	> 42 µM (inactive)
CC1=NC2(CCCc3c2no[n+]3[O-])N(O)C1(C)C (stereo not given)	> 42 µM (inactive)
Cc1cc(C)nc(SCC2COc3ccccc3O2)n1 (stereo not given)	> 42 µM (inactive)
Cc1ccc(C(=O)O)cc1[N+](=O)[O-]	> 42 µM (inactive)
c1ccc(CCCc2nc(-c3cccnc3)no2)cc1	> 42 µM (inactive)
CN(C)CCNC(=O)c1onc(CSc2ccc(F)c(F)c2)c1C(=O)NCCN(C)C	> 42 µM (inactive)

Compound	AC50
CCOc1cc(-c2ccccc2)nc(N)n1	> 42 µM (inactive)
COc1ccc(S(=O)(=O)NCC(=O)N(CC(=O)NCC2CCCO2)c2ccccc2C)cc1 (stereo not given)	> 42 µM (inactive)
c1ccc(OCCCc2nc(-c3cccnc3)no2)cc1	> 42 µM (inactive)
COc1ccc(OC)c(NC(=O)CN(C)S(=O)(=O)c2ccc(Cl)cc2)c1	> 42 µM (inactive)
Cc1ccc2c(C)c(C(=O)N(C)C(C)c3ccncn3)oc2c1C (stereo not given)	> 42 µM (inactive)
CCOc1ccc(C(=O)Nc2ccc(N3CCN(C)CC3)cc2)cc1[N+](=O)[O-]	> 42 µM (inactive)
CC(C)C(=O)NCCSc1c[nH]c2ccccc12	> 42 µM (inactive)
O=C1NC2(CCCCO2)CO1 (stereo not given)	> 42 µM (inactive)
CCOC(=O)C1=C(C)NC(C)=C(C(=O)OCC)C1C(=O)OC1CCOC1=O (stereo not given)	> 42 µM (inactive)
N#CC1=C(N)Nc2ncnn2C1c1ccc([N+](=O)[O-])cc1 (stereo not given)	> 42 µM (inactive)
CCC(C)(C)n1nnnc1C(c1ccc(OC)c(OC)c1)N1CCN(c2cccc(OC)c2)CC1 (stereo not given)	> 42 µM (inactive)
Cn1c(=O)[nH]c(=O)c2c1nc(Sc1ccccc1)n2CCc1ccccc1	> 42 µM (inactive)
COCC(=O)n1nc(-c2ccc(Cl)cc2)nc1NCc1ccc(F)cc1	> 42 µM (inactive)
CCc1nc2ccccc2c(C(=O)OC2CCCCC2=O)c1C (stereo not given)	> 42 µM (inactive)
CCc1ccccc1NC(=O)N[C@@H](C)C(=O)OC	> 42 µM (inactive)
COc1ccc(C(=O)c2c(C)c3cc(C)ccc3n2CC(O)CN2CCOCC2)cc1 (stereo not given)	> 21 µM (inactive)
Oc1c(Br)cc(Br)cc1/C=N/N1CCN(Cc2ccccc2)CC1	1.78 µM
CC(NC(=O)c1ccc(Cl)cc1)C(=O)N1CCCCC1 (stereo not given)	> 42 µM (inactive)
CCOc1c(Cl)cc(CNCC(O)c2ccccc2)cc1OC (stereo not given)	> 42 µM (inactive)
COc1cc(OC)cc(OC(=O)c2ccc3c(=O)n4c(nc3c2)CCC4)c1	> 42 µM (inactive)
COc1ccc(/C=C(/C#N)S(=O)(=O)c2ccc(C)cc2)cc1	> 21 µM (inactive)
CC1CCN(CCNC(=O)C2CCCN(S(=O)(=O)c3cccc4nsnc34)C2)CC1 (stereo not given)	> 42 µM (inactive)
Cc1ccc(C(=O)NC(Cc2c[nH]c3ccccc23)C(=O)O)o1 (stereo not given)	> 42 µM (inactive)
CC(Oc1ccccc1)C(=O)Nc1ccccc1O (stereo not given)	> 42 µM (inactive)
Cc1cc(C(=O)N/N=C/c2ccc3c(c2)OCO3)c2ccccc2n1	> 42 µM (inactive)
